Experiment [1] addresses T1, recombinant human estradiol receptors (rhER) alpha (α) (Homo sapiens, UniProt P03372).
T1 sequence (P03372 1-595): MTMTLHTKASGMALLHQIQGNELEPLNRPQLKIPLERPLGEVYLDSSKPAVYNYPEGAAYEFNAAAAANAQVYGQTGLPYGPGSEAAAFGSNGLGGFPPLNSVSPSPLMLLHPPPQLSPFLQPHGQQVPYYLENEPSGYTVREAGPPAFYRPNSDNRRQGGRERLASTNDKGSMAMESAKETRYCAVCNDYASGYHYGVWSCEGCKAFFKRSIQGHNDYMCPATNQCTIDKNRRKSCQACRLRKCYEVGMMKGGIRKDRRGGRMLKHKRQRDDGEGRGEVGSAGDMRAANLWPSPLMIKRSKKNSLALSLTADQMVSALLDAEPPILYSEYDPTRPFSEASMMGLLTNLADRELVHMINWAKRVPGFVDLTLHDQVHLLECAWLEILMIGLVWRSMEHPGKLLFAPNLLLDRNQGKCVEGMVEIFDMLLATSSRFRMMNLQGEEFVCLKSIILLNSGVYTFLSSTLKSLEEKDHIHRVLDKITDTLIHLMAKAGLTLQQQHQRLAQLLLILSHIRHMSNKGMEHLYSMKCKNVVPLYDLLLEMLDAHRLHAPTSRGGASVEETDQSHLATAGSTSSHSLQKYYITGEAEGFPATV
Nature of the experiment: competitive binding assay, displacement of [3H] estradiol radioligand from rhER alpha. The following applies: text statements, tested up to 2.5×E-4 M. For orientation: Displacement assays read how much labelled ligand stays bound in the presence of the test substance.

Experiment [2] deals with recombinant human estradiol receptors (rhER) beta 1 (β1) (Homo sapiens, UniProt Q92731). Description: competitive binding assay, displacement of [3H] estradiol radioligand from rhER beta 1. The following applies: tested up to 2.5×E-4 M.

`CC(C)(c1ccccc1)c1ccc(O)cc1` [B, p-Cumyl Phenol, reference compound]: the “estradiol binding / displacement at the alpha estradiol receptor (in words)” value in experiment [1] is on record as “displace estradiol at low concentrations”. For the same compound, in experiment [2] (text statements), the “estradiol binding / displacement at the beta estradiol receptor (in words)” value was “displace estradiol at low concentrations”.

As for `O=C1c2ccccc2C(c2ccc(O)cc2)(c2ccc(O)cc2)N1c1ccccc1` [Example 3, N-Phenyl Phenolphthalein Bisphenol], the “estradiol binding / displacement at the alpha estradiol receptor (in words)” value is on record as “no detectible estradiol displacement” in experiment [1] and “no estradiol binding” in experiment [1] (listed as N-phenyl phenolphthalein bisphenol). Also, the “estradiol binding / displacement at the beta estradiol receptor (in words)” value in experiment [2] (text statements) was “no detectible estradiol displacement”; in experiment [2] (text statements, listed as N-phenyl phenolphthalein bisphenol) it was “no estradiol binding”.

`Oc1cccc(O)c1` [Example 4, Resorcinol]: the “estradiol binding / displacement at the alpha estradiol receptor (in words)” value was “no detectible estradiol displacement” in experiment [1] and “no estradiol binding” in experiment [1] (listed as resorcinol). Moreover, the “estradiol binding / displacement at the beta estradiol receptor (in words)” value in experiment [2] (text statements) was “no detectible estradiol displacement”; in experiment [2] (text statements, listed as resorcinol), “no estradiol binding”.

Consider `Cc1cc(O)ccc1O` [Example 8, Methyl Hydroquinone], for which the “estradiol binding / displacement at the beta estradiol receptor (in words)” value in experiment [2] (text statements) is listed as “no alpha or beta estradiol displacement”; in experiment [2] (text statements, listed as methyl hydroquinone) it was “no estradiol binding”.

On to `Cc1cc(C2(c3ccc(O)c(C)c3)CCCCC2)ccc1O` [G, Dimethyl Cyclohexyl Bisphenol, reference compound], for which the “estradiol binding / displacement at the alpha estradiol receptor (in words)” value in experiment [1] is reported as “displace estradiol at low concentrations”. Further, the “estradiol binding / displacement at the beta estradiol receptor (in words)” value in experiment [2] (text statements) is listed as “displace estradiol at low concentrations”.

Turning to `CC(C)(c1ccc(O)cc1)c1cccc(C(C)(C)c2ccc(O)cc2)c1` [K, Bisphenol M, reference compound], in experiment [1], the “estradiol binding / displacement at the alpha estradiol receptor (in words)” value is given as “displace estradiol at low concentrations”. The “estradiol binding / displacement at the beta estradiol receptor (in words)” value in experiment [2] (text statements) is on record as “displace estradiol at low concentrations”.

For the compound `O=C1OC(c2ccc(O)cc2)(c2ccc(O)cc2)c2ccccc21` [O, Phenolphthalein, reference compound], the “estradiol binding / displacement at the beta estradiol receptor (in words)” value in experiment [2] (text statements) is “estradiol displacement at low concentration”.

Biphenol [Example 6]: the “estradiol binding / displacement at the alpha estradiol receptor (in words)” value in experiment [1] was “no displacement of the estradiol”; in experiment [1] (listed as biphenol), “no estradiol binding”. In experiment [2] (text statements), the “estradiol binding / displacement at the beta estradiol receptor (in words)” value is “no estradiol binding”.

Turning to “Bis Hydroxy Phenyl Menthane [reference compound]”, in experiment [1], the “estradiol binding / displacement at the alpha estradiol receptor (in words)” value is “displace estradiol at low concentrations”. The “estradiol binding / displacement at the beta estradiol receptor (in words)” value in experiment [2] (text statements) is listed as “displace estradiol at low concentrations”.

With “Bisphenol Acetophenone [D, reference compound]”, the “estradiol binding / displacement at the alpha estradiol receptor (in words)” value in experiment [1] was “displace estradiol at low concentrations”.

Turning to “Dihydroxy Diphenyl Ether [Example C, reference compound]”, the “estradiol binding / displacement at the beta estradiol receptor (in words)” value in experiment [2] (text statements) is “displace estradiol at low concentrations”.

“Diphenolic Acid Methyl Ester [F, reference compound]”: in experiment [1], the “estradiol binding / displacement at the alpha estradiol receptor (in words)” value was “displace estradiol at low concentrations”. Besides, the “estradiol binding / displacement at the beta estradiol receptor (in words)” value in experiment [2] (text statements) is given as “displace estradiol at low concentrations”.

Consider “Fluorenone Bis-o-Cresol [reference compound]”, for which the “estradiol binding / displacement at the beta estradiol receptor (in words)” value in experiment [2] (text statements) is recorded as “displace estradiol at low concentrations”.

With Tetra Methyl BPA [Example 1], the “estradiol binding / displacement at the beta estradiol receptor (in words)” value is “no estradiol binding” in experiment [2] (listed as tetra methyl bisphenol-A) and “no detectible estradiol displacement” in experiment [2] (text statements).

The values above are taken from patent US8686075B2, “Polysulfone compositions and methods for the manufacture and use thereof” (SABIC Innovative Plastics IP B.V., priority 2011, dated 2014).
